Experimental data: publication PMC5218480 (PLoS ONE, 2017)

System: MV-4-11 cells
Test: Gene expression microarray analysis (Affymetrix PrimeView) and GSEA
Type: cell-based, human
Design: RFU PODN (11730768_x_at) / Fold change /veh PODN (11730768_x_at) / RFU LINC00158 (11744669_a_at) / Fold change /veh LINC00158 (11744669_a_at) / RFU DUSP10 (11751237_a_at) / Fold change /veh DUSP10 (11751237_a_at) / RFU ID3 (11757404_x_at) / Fold change /veh ID3 (11757404_x_at) / RFU PLEKHG5 (11737974_s_at) / Fold change /veh PLEKHG5 (11737974_s_at) / RFU LRRC4B (11730491_at) / Fold change /veh LRRC4B (11730491_at) / RFU GIMAP4 (11747438_a_at) / Fold change /veh GIMAP4 (11747438_a_at) / RFU KRT8 (11758183_x_at) / Fold change /veh KRT8 (11758183_x_at) / RFU CNN1 (11734310_a_at) / Fold change /veh CNN1 (11734310_a_at) / RFU VPS37D (11726825_at) / Fold change /veh VPS37D (11726825_at) / RFU C10orf10 (11716522_x_at) / Fold change /veh C10orf10 (11716522_x_at) / RFU KIR2DL2 /// KIR2DL4 /// KIR2DL5A /// KIR2DL5B /// KIR2DS1 /// KIR2DS2 /// KIR2DS3 /// KIR2DS4 /// KIR3DL3 /// KIR3DL3 /// KIR3DS1 (11738374_at) / Fold change /veh KIR2DL2 /// KIR2DL4 /// KIR2DL5A /// KIR2DL5B /// KIR2DS1 /// KIR2DS2 /// KIR2DS3 /// KIR2DS4 /// KIR3DL3 /// KIR3DL3 /// KIR3DS1 (11738374_at) / RFU C1QL1 (11718748_at) / Fold change /veh C1QL1 (11718748_at) / RFU TMPRSS4 (11747572_a_at) / Fold change /veh TMPRSS4 (11747572_a_at) / RFU HAMP (11756126_x_at) / Fold change /veh HAMP (11756126_x_at) / RFU RNFT2 (11725882_a_at) / Fold change /veh RNFT2 (11725882_a_at) / RFU NR4A2 (11747474_a_at) / Fold change /veh NR4A2 (11747474_a_at) / RFU ABCC12 (11746883_a_at) / Fold change /veh ABCC12 (11746883_a_at) / RFU TMEM136 (11760407_x_at) / Fold change /veh TMEM136 (11760407_x_at) / RFU CLDN22 /// WWC2 (11732394_at) / Fold change /veh CLDN22 /// WWC2 (11732394_at) / RFU HLA-DPB1 (11760878_x_at) / Fold change /veh HLA-DPB1 (11760878_x_at) / RFU SPINT1 (11716480_a_at) / Fold change /veh SPINT1 (11716480_a_at) / RFU GAP43 (11754022_s_at) / Fold change /veh GAP43 (11754022_s_at) / RFU A4GNT (11735810_at) / Fold change /veh A4GNT (11735810_at) / RFU PRB3 (11715151_x_at) / Fold change /veh PRB3 (11715151_x_at) / RFU TUBB4B (11761932_at) / Fold change /veh TUBB4B (11761932_at) / RFU CAPN14 (11732068_a_at) / Fold change /veh CAPN14 (11732068_a_at) / RFU TMCC2 (11721928_a_at) / Fold change /veh TMCC2 (11721928_a_at) / RFU IRGQ (11745062_a_at) / Fold change /veh IRGQ (11745062_a_at) / RFU FAM174B (11720279_a_at) / Fold change /veh FAM174B (11720279_a_at) / RFU TMPRSS4 (11748680_a_at) / Fold change /veh TMPRSS4 (11748680_a_at) / RFU FAM212B (11763350_a_at) / Fold change /veh FAM212B (11763350_a_at) / RFU PLEKHG5 (11743358_a_at) / Fold change /veh PLEKHG5 (11743358_a_at) / RFU ZSCAN30 (11745921_a_at) / Fold change /veh ZSCAN30 (11745921_a_at) / RFU CMKLR1 (11741424_a_at) / Fold change /veh CMKLR1 (11741424_a_at) / RFU LOC101060620 /// MAPK8IP1 (11723275_at) / Fold change /veh LOC101060620 /// MAPK8IP1 (11723275_at) / RFU SPTSSB (11747773_x_at) / Fold change /veh SPTSSB (11747773_x_at) / RFU PRSS12 (11739890_at) / Fold change /veh PRSS12 (11739890_at) / RFU BIN1 (11741810_x_at) / Fold change /veh BIN1 (11741810_x_at) / RFU WNT11 (11732464_a_at) / Fold change /veh WNT11 (11732464_a_at) / RFU C10orf10 (11716521_a_at) / Fold change /veh C10orf10 (11716521_a_at) / RFU C5orf56 (11738089_at) / Fold change /veh C5orf56 (11738089_at) / RFU CYB561 (11721691_x_at) / Fold change /veh CYB561 (11721691_x_at) / RFU ANKRD19P (11752326_a_at) / Fold change /veh ANKRD19P (11752326_a_at) / RFU OR2T12 /// OR2T33 /// OR2T8 (11738714_s_at) / Fold change /veh OR2T12 /// OR2T33 /// OR2T8 (11738714_s_at) / RFU VCAN (11748164_a_at) / Fold change /veh VCAN (11748164_a_at) / RFU JSRP1 (11732532_at) / Fold change /veh JSRP1 (11732532_at) / RFU KRTAP10-11 (11738290_x_at) / Fold change /veh KRTAP10-11 (11738290_x_at) / RFU MYO3A (11730013_a_at) / Fold change /veh MYO3A (11730013_a_at) / RFU EBF3 (11725865_a_at) / Fold change /veh EBF3 (11725865_a_at) / RFU CAMK2N1 (11719241_x_at) / Fold change /veh CAMK2N1 (11719241_x_at) / RFU C5orf56 (11738088_a_at) / Fold change /veh C5orf56 (11738088_a_at) / RFU OLFML3 (11715873_a_at) / Fold change /veh OLFML3 (11715873_a_at) / RFU LOC100653217 /// NTM (11731650_a_at) / Fold change /veh LOC100653217 /// NTM (11731650_a_at) / RFU MAPK11 (11762145_a_at) / Fold change /veh MAPK11 (11762145_a_at) / RFU FIZ1 (11724087_x_at) / Fold change /veh FIZ1 (11724087_x_at) / RFU OASL (11726364_x_at) / Fold change /veh OASL (11726364_x_at) / RFU SOX15 (11748057_x_at) / Fold change /veh SOX15 (11748057_x_at) / RFU CD79A (11719716_a_at) / Fold change /veh CD79A (11719716_a_at) / RFU HIST1H1D (11736915_at) / Fold change /veh HIST1H1D (11736915_at) / RFU CASKIN2 (11723855_a_at) / Fold change /veh CASKIN2 (11723855_a_at) / RFU LOC730098 (11760151_x_at) / Fold change /veh LOC730098 (11760151_x_at) / RFU OR4N2 (11742367_at) / Fold change /veh OR4N2 (11742367_at) / RFU PRRT2 (11749266_a_at) / Fold change /veh PRRT2 (11749266_a_at) / RFU SNX32 (11753110_a_at) / Fold change /veh SNX32 (11753110_a_at) / RFU CDHR5 (11726645_a_at) / Fold change /veh CDHR5 (11726645_a_at) / RFU RCAN1 (11760418_a_at) / Fold change /veh RCAN1 (11760418_a_at) / RFU FAM167A (11723789_a_at) / Fold change /veh FAM167A (11723789_a_at) / RFU FAM26E (11764081_at) / Fold change /veh FAM26E (11764081_at) / RFU ISYNA1 (11749810_s_at) / Fold change /veh ISYNA1 (11749810_s_at) / RFU ACY1 (11761880_at) / Fold change /veh ACY1 (11761880_at) / RFU 11764098_at / Fold change /veh 11764098_at / RFU SAMD14 (11745864_x_at) / Fold change /veh SAMD14 (11745864_x_at) / RFU NPB (11741838_a_at) / Fold change /veh NPB (11741838_a_at) / RFU TMPRSS6 (11731388_a_at) / Fold change /veh TMPRSS6 (11731388_a_at) / RFU KRTAP10-2 (11738614_at) / Fold change /veh KRTAP10-2 (11738614_at) / RFU ARHGAP8 /// PRR5-ARHGAP8 (11727945_x_at) / Fold change /veh ARHGAP8 /// PRR5-ARHGAP8 (11727945_x_at) / RFU KRTAP5-7 /// NADSYN1 (11734609_at) / Fold change /veh KRTAP5-7 /// NADSYN1 (11734609_at) / RFU RASL12 (11751679_a_at) / Fold change /veh RASL12 (11751679_a_at) / RFU CDKN2B (11736163_a_at) / Fold change /veh CDKN2B (11736163_a_at) / RFU PRF1 (11729649_at) / Fold change /veh PRF1 (11729649_at) / RFU, ZNF638 /// ZNF638-IT1 / Fold change vs veh, ZNF638 /// ZNF638-IT1 / RFU, PANK3 / Fold change vs veh, PANK3 / RFU, SH3YL1 / Fold change vs veh, SH3YL1 / RFU, ZEB2 / Fold change vs veh, ZEB2 / RFU, NRIP1 / Fold change vs veh, NRIP1 / RFU, PTTG1IP / Fold change vs veh, PTTG1IP / RFU, CAPN2 / Fold change vs veh, CAPN2 / RFU, MED14 / Fold change vs veh, MED14 / RFU, SNORA58 / Fold change vs veh, SNORA58 / RFU, C1orf63 / Fold change vs veh, C1orf63 / RFU, LRRFIP1 / Fold change vs veh, LRRFIP1 / RFU, NDUFAF7 / Fold change vs veh, NDUFAF7 / RFU, SLC12A2 / Fold change vs veh, SLC12A2 / RFU, IBTK / Fold change vs veh, IBTK / RFU, ESF1 / Fold change vs veh, ESF1 / Fold change vs veh, TMEM50B / RFU, TAOK1 / Fold change vs veh, TAOK1 / RFU, ACBD3 / Fold change vs veh, ACBD3 / RFU, TMA16 / Fold change vs veh, TMA16 / RFU, RWDD3 / Fold change vs veh, RWDD3 / RFU, BCAT1 / Fold change vs veh, BCAT1 / RFU, EDEM3 / Fold change vs veh, EDEM3 / RFU, TMEM33 / Fold change vs veh, TMEM33 / RFU, WDR75 / Fold change vs veh, WDR75 / RFU, AHCTF1 / Fold change vs veh, AHCTF1 / RFU, TFRC / Fold change vs veh, TFRC / RFU, ZDHHC17 / Fold change vs veh, ZDHHC17 / RFU, NOM1 / Fold change vs veh, NOM1 / RFU, ARL8B / Fold change vs veh, ARL8B / RFU, ZBTB11 / Fold change vs veh, ZBTB11 / RFU, TAMM41 / Fold change vs veh, TAMM41 / RFU, KIAA1704 /// LOC100996395 / Fold change vs veh, KIAA1704 /// LOC100996395 / RFU, ING1 / Fold change vs veh, ING1 / RFU, TRMT61B / Fold change vs veh, TRMT61B / RFU, FUBP3 / Fold change vs veh, FUBP3 / RFU, TP53 / Fold change vs veh, TP53 / RFU, TNKS2 / Fold change vs veh, TNKS2 / RFU, ZFP14 / Fold change vs veh, ZFP14 / RFU, ACTR2 / Fold change vs veh, ACTR2 / RFU, PPP3R1 / Fold change vs veh, PPP3R1 / RFU, PIK3R1 / Fold change vs veh, PIK3R1 / RFU, HNRNPA1 / Fold change vs veh, HNRNPA1 / RFU, RNF170 / Fold change vs veh, RNF170 / RFU, ZNF28 / Fold change vs veh, ZNF28 / RFU, RNGTT / Fold change vs veh, RNGTT / RFU, OGT / Fold change vs veh, OGT / RFU, BRD1 / Fold change vs veh, BRD1 / RFU, MARS / Fold change vs veh, MARS / RFU, ZNF655 / Fold change vs veh, ZNF655 / RFU, FAHD1 / Fold change vs veh, FAHD1 / RFU, BDP1 / Fold change vs veh, BDP1 / RFU, LRRCC1 / Fold change vs veh, LRRCC1 / RFU, ARID1A / Fold change vs veh, ARID1A / RFU, ZNF146 / Fold change vs veh, ZNF146 / RFU, ZNF330 / Fold change vs veh, ZNF330 / RFU, GPN3 / Fold change vs veh, GPN3 / RFU, C9orf123 / Fold change vs veh, C9orf123 / RFU, N4BP2L2 / Fold change vs veh, N4BP2L2 / RFU, ARFIP1 / Fold change vs veh, ARFIP1 / RFU, FAM179B / Fold change vs veh, FAM179B / RFU, BCL10 / Fold change vs veh, BCL10 / RFU, UHRF1BP1L / Fold change vs veh, UHRF1BP1L / RFU, BET1 / Fold change vs veh, BET1 / RFU, CNOT2 / Fold change vs veh, CNOT2 / RFU, ZNF268 / Fold change vs veh, ZNF268 / Fold change vs veh, ZNF507 / RFU, DGCR2 / Fold change vs veh, DGCR2 / RFU, WDSUB1 / Fold change vs veh, WDSUB1 / Fold change vs veh, HSP90B1 /// MIR3652 / RFU, ADSS / Fold change vs veh, ADSS / RFU, GK / Fold change vs veh, GK / RFU, ZNF148 / Fold change vs veh, ZNF148 / RFU, TAF9 / Fold change vs veh, TAF9 / RFU, SLC1A5 / Fold change vs veh, SLC1A5 / RFU, SLMO2 / Fold change vs veh, SLMO2 / RFU, ABCC4 / Fold change vs veh, ABCC4 / RFU, LOC101060439 /// RAP1B / Fold change vs veh, LOC101060439 /// RAP1B / RFU, RFX7 / Fold change vs veh, RFX7 / RFU, GTPBP10 / Fold change vs veh, GTPBP10 / RFU, CNEP1R1 / Fold change vs veh, CNEP1R1 / RFU, BIVM-ERCC5 /// ERCC5 / Fold change vs veh, BIVM-ERCC5 /// ERCC5 / RFU, ILF3 / Fold change vs veh, ILF3 / RFU 11762660_at / Fold change /veh 11762660_at / RFU VCAN (11757783_s_at) / Fold change /veh VCAN (11757783_s_at) / RFU DDX43 (11728927_at) / Fold change /veh DDX43 (11728927_at) / RFU KRT8 (11758188_x_at) / Fold change /veh KRT8 (11758188_x_at) / RFU NKD1 (11759106_at) / Fold change /veh NKD1 (11759106_at) / RFU SRD5A1 (11742802_a_at) / Fold change /veh SRD5A1 (11742802_a_at) / RFU TPSAB1 /// TPSB2 (11721975_s_at) / Fold change /veh TPSAB1 /// TPSB2 (11721975_s_at) / RFU GSTM3 (11746129_a_at) / Fold change /veh GSTM3 (11746129_a_at) / RFU IL23R (11737362_x_at) / Fold change /veh IL23R (11737362_x_at) / RFU TMEM51 (11727254_a_at) / Fold change /veh TMEM51 (11727254_a_at) / RFU PIWIL2 (11732686_x_at) / Fold change /veh PIWIL2 (11732686_x_at) / RFU ORM1 (11744905_x_at) / Fold change /veh ORM1 (11744905_x_at) / RFU CCDC152 (11743942_at) / Fold change /veh CCDC152 (11743942_at) / RFU ECM1 (11717891_a_at) / Fold change /veh ECM1 (11717891_a_at) / RFU IL23R (11748794_a_at) / Fold change /veh IL23R (11748794_a_at) / RFU TNFAIP8L3 (11732012_x_at) / Fold change /veh TNFAIP8L3 (11732012_x_at) / RFU MBOAT4 (11741988_at) / Fold change /veh MBOAT4 (11741988_at) / RFU 11764193_at / Fold change /veh 11764193_at / RFU TMEM53 (11763286_at) / Fold change /veh TMEM53 (11763286_at) / RFU MAGEB2 (11727129_at) / Fold change /veh MAGEB2 (11727129_at) / RFU TMEM200A (11744735_a_at) / Fold change /veh TMEM200A (11744735_a_at) / RFU CCDC152 (11751479_a_at) / Fold change /veh CCDC152 (11751479_a_at) / RFU FAM211A (11726209_a_at) / Fold change /veh FAM211A (11726209_a_at) / RFU RGS16 (11746705_a_at) / Fold change /veh RGS16 (11746705_a_at) / RFU VCAN (11755009_s_at) / Fold change /veh VCAN (11755009_s_at) / RFU RHOB (11743442_s_at) / Fold change /veh RHOB (11743442_s_at) / RFU RGS16 (11720943_a_at) / Fold change /veh RGS16 (11720943_a_at) / RFU RGS16 (11720944_at) / Fold change /veh RGS16 (11720944_at) / RFU, VPS4B / Fold change vs veh, VPS4B / RFU, CREB1 / Fold change vs veh, CREB1 / RFU, DNAJC13 / Fold change vs veh, DNAJC13 / RFU, GNAQ / Fold change vs veh, GNAQ / RFU, CDK5R1 / Fold change vs veh, CDK5R1 / RFU, ZRANB3 / Fold change vs veh, ZRANB3 / RFU, CUL4A / Fold change vs veh, CUL4A / RFU, CCNY / Fold change vs veh, CCNY / RFU, UFL1 / Fold change vs veh, UFL1 / RFU, COG3 / Fold change vs veh, COG3 / RFU, DIAPH2 / Fold change vs veh, DIAPH2 / RFU, SKA2 / Fold change vs veh, SKA2 / RFU, AFF3 / Fold change vs veh, AFF3 / RFU, LMF1 / Fold change vs veh, LMF1 / RFU, IPO11 / Fold change vs veh, IPO11 / RFU, DFFB / Fold change vs veh, DFFB / RFU, FOXP1 / Fold change vs veh, FOXP1 / RFU, CARD8 / Fold change vs veh, CARD8 / RFU, STRN3 / Fold change vs veh, STRN3 / RFU, ADK / Fold change vs veh, ADK / RFU, RASSF2 / Fold change vs veh, RASSF2 / RFU, WIPF1 / Fold change vs veh, WIPF1 / RFU, LARP1B / Fold change vs veh, LARP1B / RFU, RASA1 / Fold change vs veh, RASA1 / RFU, RB1 / Fold change vs veh, RB1 / RFU, PPFIA1 / Fold change vs veh, PPFIA1 / RFU, MAT2A / Fold change vs veh, MAT2A / RFU, CCT5 / Fold change vs veh, CCT5 / RFU, WDR92 / Fold change vs veh, WDR92 / RFU, CUX1 / Fold change vs veh, CUX1 / RFU, TTC7A / Fold change vs veh, TTC7A / RFU, TMEM135 / Fold change vs veh, TMEM135 / RFU, DEPTOR / Fold change vs veh, DEPTOR / RFU, CPM / Fold change vs veh, CPM / RFU, DNAJB6 / Fold change vs veh, DNAJB6 / RFU, CACNA2D3 / Fold change vs veh, CACNA2D3 / RFU, DTX4 / Fold change vs veh, DTX4 / RFU, TFCP2 / Fold change vs veh, TFCP2 / RFU, GMCL1 /// GMCL1P1 / Fold change vs veh, GMCL1 /// GMCL1P1 / RFU, AEBP2 / Fold change vs veh, AEBP2 / RFU, SNHG1 /// SNORD22 /// SNORD25 /// SNORD26 /// SNORD27 /// SNORD28 /// SNORD29 /// SNORD31 / Fold change vs veh, SNHG1 /// SNORD22 /// SNORD25 /// SNORD26 /// SNORD27 /// SNORD28 /// SNORD29 /// SNORD31 / Fold change (Aza/veh), C12orf56 (ProbeSet 11735607_a_at) / Fold change (ACY-1035/veh), C12orf56 (ProbeSet 11735607_a_at) / Fold change (Aza/veh), FGFR1OP (ProbeSet 11751329_s_at) / Fold change (ACY-1035/veh), FGFR1OP (ProbeSet 11751329_s_at) / Fold change (Aza/veh), VPS36 (ProbeSet 11739960_a_at) / Fold change (ACY-1035/veh), VPS36 (ProbeSet 11739960_a_at) / RFU SYPL1 (11715823_x_at) / Fold change /veh SYPL1 (11715823_x_at) / RFU IGFBP7 (11715501_s_at) / Fold change /veh IGFBP7 (11715501_s_at) / RFU REEP3 (11722064_at) / Fold change /veh REEP3 (11722064_at) / RFU IGLL1 (11728026_x_at) / Fold change /veh IGLL1 (11728026_x_at): dose or concentration left out as unconfirmed
Settings: ProbeSet 11726703_a_at; LIST B

**Q.** Which “RFU, BCL10” value does the source give for `Nc1ccc(-c2cccs2)cc1NC(=O)c1ccc2c(c1)cc(C1CC1)n2CCN1CCOCC1` [ACY-1035] here?
**A.** 67.93 RFU
